Assay results: patent US9370541B2, “Extract of the above-ground portions of gynandropsis gynandra or cleome gynandra, and cosmetic, dermatological or pharmaceutical compositions including same” (LABORATOIRES EXPANSCIENCE, priority 2010, dated 2016)

How the values were obtained:
[1] = system: Cells of the Jurkat cell line; experiment: UV-induced lipid peroxidation (flow cytometry); type: cell-based; conditions: 100 μM BHT; UVA+B irradiation
Description: Cells of the Jurkat cell line were preincubated for 45 minutes in the presence of the extract of Gynandropsis gynandra (GG) at a concentration of 0.02% (w/v of active material) or 100 μM of BHT (reference) and in the presence of the fluorescent probe 011-fluorine, specific for lipid peroxidation.
The cells were then irradiated by UVA+B and then incubated for 30 minutes in the presence of GG or BHT.
At the end of incubation, the quantity of lipid peroxides was evaluated by a flow cytometry analysis of fluorescence intensity (inversely proportional to oxidation).
(§1) The results were analyzed statistically by a Student's t-test.

Mastocytes = experiment: Release of histamine by mastocytes stimulated by substance P, ELISA; type: cell-based; conditions: 10 nM Calcium; 10 μM substance P, 15 minutes
Description: Mastocytes were preincubated for 30 minutes in the presence of the extract of Gynandropsis gynandra (GG) at a concentration of 0.08% (w/v of active material) or 10 Mm of calcium (reference inhibitor of histamine release).
The mastocytes were then stimulated with 10 μM of substance P for 15 minutes. At the end of incubation, the histamine released was quantified by ELISA.
as §1

interleukin 8 (IL8) = experiment: Production of IL8 by PMA-stimulated keratinocytes (NCTC-2544), ELISA; type: cell-based, Human; conditions: 10^−7 M Dexamethasone, 0.1 μg/ml PMA 24 hours
Description: At the end of the treatment, the quantities of interleukin 8 (IL8) and prostaglandin E2 (PGE2) secreted were measured by ELISA in the culture supernatants. The results were analyzed statistically by a Student's t-test.

prostaglandin E2 (PGE2) = experiment: Production of PGE2 by PMA-stimulated keratinocytes (NCTC-2544), ELISA; type: cell-based, Human; conditions: 10^−6 M Indomethacin, 0.1 μg/ml PMA 24 hours
Normal human adipocytes = experiment: Lipogenesis in adipocytes ([14C]-acetate incorporation); type: cell-based; conditions: 20 μM of cerulenin
Description: Normal human adipocytes were incubated for 1 hour in the presence of the extract of Gynandropsis gynandra (GG) at a concentration of 0.02% (w/v of active material) or the reference (20 μM of cerulenin). After incubation, the radioactive label [^14C]-acetate was added and the samples were incubated overnight.
At the end of incubation, the lipids were extracted and the radioactivity incorporated (corresponding to the lipogenesis) was measured by liquid scintillation.
as §1

[2] = system: Normal human keratinocytes; experiment: Production of ROS in keratinocytes treated with H2O2 (H2DCF-DA probe); type: cell-based; conditions: 10 μg/ml vitamin C, 24 hours, 100 μM H2O2, 20 minutes
Description: The keratinocytes were then stimulated with 100 μM of hydrogen peroxide (H2O2) for 20 minutes. The production of reactive oxygen species (ROS) was evaluated by measuring fluorescence. The results were analyzed statistically by a Student's t-test.

[3] = system: Normal human keratinocytes; experiment: Keratinocyte migration after artificial wound; type: cell-based; conditions: 10 ng/ml of EGF
Description: An artificial wound was prepared on a monolayer of normal human keratinocytes.
At 0, 24, 48 and 72 hours, keratinocyte migration was monitored by microphotography and was quantified by measuring the surface area of the wound.
as §1

[4] = system: Normal human epidermal melanocytes; experiment: Melanin production by melanocytes; type: cell-based; conditions: 10^−7 M NDP-MSH alone (stimulated control); 240 hours
Description: After incubation, melanin was extracted from the cells and was quantified by spectrophotometry.
as §1

In the case of `Cc1cc(C(C)(C)C)c(O)c(C(C)(C)C)c1` [BHT], the “Lipid peroxides (% of irradiated control)” value [1] is reported as 64 % of irradiated control and the “Protection (%)” value [1] is reported as 49% p < 0.01.

For `[Ca+2]` [Calcium, calcium], the “Histamine” value (Mastocytes) was 21.8 ± 1.0 ng/mL and the “Inhibition of histamine release” value (Mastocytes) was −85% p < 0.01.

With `C[C@@H]1C[C@H]2[C@@H]3CCC4=CC(=O)C=C[C@]4(C)[C@@]3(F)[C@@H](O)C[C@]2(C)[C@@]1(O)C(=O)CO` [Dexamethasone, dexamethasone] the “IL8” value (interleukin 8 (IL8)) was 7.4 ± 0.8 ng/mL and the inhibition at 0.1 µM (interleukin 8 (IL8); Homo sapiens, NCTC-2544) was 85%.

For `COc1ccc2c(c1)c(CC(=O)O)c(C)n2C(=O)c1ccc(Cl)cc1` [Indomethacin, indomethacin], the “PGE2” value (prostaglandin E2 (PGE2)) was 0.039 ± 0.0 ng/mL and the inhibition at 1 µM (prostaglandin E2 (PGE2); Homo sapiens, NCTC-2544) was 100%.

In the case of `C/C=C/C/C=C/CCC(=O)[C@H]1O[C@H]1C(N)=O` [cerulenin], the “Incorporation of acetate (cpm)” value (Normal human adipocytes) is reported as 14934 ± 671 cpm and the inhibition at 20 µM (Normal human adipocytes; Homo sapiens, Adipocyte) is reported as 55%.

`O=C1O[C@H]([C@@H](O)CO)C(O)=C1O` [vitamin C] was tested, and the “ROS (fluorescence units)” value [2] was 992.83 ± 93.96 fluorescence units and the inhibition at 10 µg/mL ([2]; Homo sapiens, Keratinocyte) was 33%.

In the case of EGF, the “Migration area (percent of wound covered)” value ([3]; 48 h) is reported as 99 (p < 0.001) percent of wound covered and the “Migration area (percent of wound covered)” value ([3]; 72 h) is reported as 100 (p < 0.001) percent of wound covered.

In the case of NDP-MSH, the “Melanin (μl/ml)” value [4] is reported as 27.1 ± 0.9 μl/ml and the “Stimulation of melanin production” value [4] is reported as “+108% p < 0.001”.
